The structures appear in SMILES notation. Where “and” joins values, the source holds several entries; their conditions need not be identical. Identical values can stand only once. Like-named read-outs stand apart in the source and are kept apart here. Bounds are passed on as bounds.

The test system of one assay is MEFs. Briefly: Reprogramming of MEFs in presence of EdU or mitotic inhibitor AraC. The assay is classed as cell-based, mouse. Here is the method:
Immunohistochemistry, and RT-PCR: For immunofluorescence staining, cells were fixed 4% paraformaldehyde for 10 minutes at room temperature. Cells were then washed three times with PBS and subsequently permeabilized with 0.1% Triton X-100 (Sigma) in PBS. After washing and permeabilization cells were blocked in 5% horse serum for thirty minutes at room temperature. Primary staining was performed overnight at 4° C. in block. Secondary antibodies were diluted in blocking solution and stained room temperature for one hour. EdU staining was performed using Click-it EdU kit (C10337;Invitrogen) following manufacturer's instructions. […]
We examined whether the observed reprogramming of fibroblasts to the somatic sensory lineage requires cell division or specialized embryonic precursors. […] Second, to further block proliferation we applied the mitotic inhibitor arabinofuranosyl cytidine (AraC) to cultures continuously from three days post induction and quantified the number of Map2-positive cells on day 14.

Assay [1] relates to Human iSNs (TRPA1, TRPM8, TRPV1). Briefly: Calcium imaging of human iSNs exposed to TRP channel ligands. The assay is classed as cell-based.
The subject of assay [2] is BN1 and BN2 iSNs (TrpA1, TrpM8, TrpV1). Nature of the assay: Calcium imaging of mouse iSNs exposed to Trp channel ligands (Map2::GCAMP5.G). The assay is classed as cell-based.
Where [3] appears, read: human BN1 iSNs, KCl responders, 10 μM capsaicin, 100 μM menthol, 100 μM mustard oil.
Setting [4] is: human BN2 iSNs, KCl responders, 10 μM capsaicin, 100 μM menthol, 100 μM mustard oil.
Setting [5] is: mouse BN1 iSNs, KCl responders, 10 μM capsaicin, 100 μM menthol, 100 μM mustard oil.
The mark [6] stands for this setting: mouse BN2 iSNs, KCl responders, 10 μM capsaicin, 100 μM menthol, 100 μM mustard oil.

For the compound `Nc1ccn([C@@H]2O[C@H](CO)[C@@H](O)[C@@H]2O)c(=O)n1` [AraC, arabinofuranosyl cytidine], the “inhibition of proliferative cells” value with MEFs (4 μM) is over 90%. Besides, in the assay on MEFs (applied continuously from three days post induction, counted day 14, BN1 or BN2), the “effect of mitotic inhibition on number of neurons (Map2-positive cells) produced during reprogramming” value was “did not significantly alter the number of neurons”.
For the compound `COc1cc(CNC(=O)CCCC/C=C/C(C)C)ccc1O` [capsaicin], the “iSNs exhibiting calcium transients in response to ligand” value (“iSNs exhibiting calcium transients” for short) is 4.4%±1.7 in assay [1] (setting [3]), 5.9%±3.3 in assay [1] (setting [4]), 19.7%±3.0 in assay [2] (setting [5]) and 21.2%±3.5 in assay [2] (setting [6]).
Regarding `CC1CCC(C(C)C)C(O)C1` (stereo not drawn) [menthol], the “iSNs exhibiting calcium transients” value in assay [1] (setting [3]) is given as 4.4%±1.4; in assay [1] (setting [4]), 6.0%±2.3; in assay [2] (setting [5]), 15.4%±2.6; in assay [2] (setting [6]) it was 17.4%±4.3.
As to `C=CCN=C=S` [mustard oil, allyl isothiocyanate], the “iSNs exhibiting calcium transients” value was 12.8%±4.5 and 8.8%±3.7 in assay [1]; 12.9%±3.8 and 12.5%±3.4 in assay [2].

The values above are taken from patent US10190094B2, “Methods and compositions related to induced sensory neurons” (priority 2013, dated 2019).
